Measurements as given in US10307383B2, “Cosmetic composition for preventing or ameliorating hypersensitive skin comprising cedrol or derivatives thereof, or pharmaceutically acceptable salts thereof” (University of Seoul Industry Cooperation Foundation, priority 2017, dated 2019).
In brackets after ≈: the same amount, converted by molar mass.

Columns and labels:
[1] = system: psoriasis induced mice (imiquimod); assay: Recovery effect on skin wrinkles of the psoriasis induced mice; type: in vivo, Balb/c mouse
Experimental: (§1) Imiquimod was applied to the psoriasis induced mice which had developed psoriasis for a week in Example <2-1>. The application was stopped 8 days after the application began. The groups CON and IMQ were treated with distilled water, the group C was treated with cedrol, the group CA was treated with cedryl acetate, the group CE was treated with alpha-cedrene alone at the concentration of 100 mg/kg in 200 μl, every day via oral-administration. Day 8 was the day the imiquimod application was stopped, since then the compounds were administered for 1 week once a day, during which photo-recording was performed (FIGS. 13A˜13D).
The psoriasis induced mice orally administered with cedrol, cedryl acetate, and alpha-cedrene of Example <3-1> were observed by the naked eye, and the number of mice showing the recovery of skin wrinkles was counted.

[2] = system: psoriasis induced mice (imiquimod); assay: Recovery effect on skin flair of the psoriasis induced mice after termination of imiquimod (PASI); type: in vivo, Balb/c mouse; conditions: for PASI reflecting skin flair: day 8 (imiquimod application stopped), 100 mg/kg oral; for skin flair disappearance (in words): on day 16, 100 mg/kg oral after termination of imiquimod
Experimental: as §1
(§2) Then, the psoriasis area severity index (Psoriasis Area Severity Index, PASI) was calculated, based on which the recovery effect on keratosis was evaluated.

[3] = system: psoriasis induced mice (imiquimod); assay: Ear thickness reduction effect in the psoriasis induced mice (PASI); type: in vivo, Balb/c mouse; conditions: for mean ear thickness point (PASI): day 7, 100 mg/kg oral once a day, IMQ applied, IMQ alone 3.5
Experimental: (§3) To investigate the delayed effect of cedrol, cedryl acetate, and alpha-cedrene on the development of psoriasis, total 5 groups of mice were prepared (8 mice/group). First, the hair of the entire back of the 8-week-old male Balb/c mouse whose immune system was weakened was removed by using a hair clipper (Kimlaube Hair pen 325,327, Rikei, Korea). In the middle of the shaved back of the mouse, 2 mg of imiquimod (3M Health Care Limited, England) was applied in the area of 2 cm×1.5 cm and also 1,125 mg of imiquimod was applied on the right ear of the mouse every day once a day to induce psoriasis.
(§4) The mice prepared above were divided into the distilled water treated group (IMQ), the cedrol treated group (C), the cedryl acetate treated group (CA), and the alpha-cedrene treated group (CE). At this time, the mice were orally treated with distilled water at the concentration of 200 μl/mouse and cedrol or its derivatives at the concentration of 200 μl/mouse (100 mg/kg). The day when distilled water or the compound administration started was recorded as day 0 and the administration was performed once a day for a week, during which photo-recording was performed every day (FIGS. 2A˜2D). In the meantime, instead of applying imiquimod, 40 mg of vaseline was applied on the back of the control group (CONT) and 22.5 mg of vaseline was applied on the right ear of the control group. And the control group was orally administered with distilled water (200 μl/mouse).
Then, the psoriasis area severity index (PASI) was calculated with the range of 1˜4 to confirm the reduction effect of the compounds on the ear thickness.

[4] = system: psoriasis induced mice (imiquimod); assay: Accelerating effect on hair regrowth of the psoriasis induced mice; type: in vivo, Balb/c mouse; conditions: for number of mice showing hair regrowth: 8 mice/group
Experimental: as §1
The psoriasis induced mice orally administered with cedrol, cedryl acetate, and alpha-cedrene of Example <3-1> were observed by the naked eye, and the number of mice showing hair regrowth was counted.

[5] = system: psoriasis induced mice (imiquimod); assay: Recovery effect on hemorrhage spots of the psoriasis induced mice; type: in vivo, Balb/c mouse
Experimental: as §1
The psoriasis induced mice orally administered with cedrol, cedryl acetate, and alpha-cedrene of Example <3-1> were observed by the naked eye, and the number of mice showing the recovery of hemorrhage spots was counted.

[6] = system: psoriasis induced mice (imiquimod); assay: Skin wrinkle reduction effect in the psoriasis induced mice; type: in vivo, Balb/c mouse; conditions: for number of mice showing skin wrinkles: IMQ applied, 8 mice/group
Experimental: as §3, §4
The psoriasis induced mice orally administered with cedrol, cedryl acetate, and alpha-cedrene of Example <2-1> were observed by the naked eye, and the number of mice showing skin wrinkles was counted. Skin wrinkle is a symptom of psoriasis, and when IMQ is applied, skin keratinization increases and accordingly skin wrinkles are formed as time goes by.

IL-17A expression = assay: IL-17A inhibition assay in IL-17 luciferase-(LUCPorter) stable reporter cell line; conditions: for Inhibition of IL-17A expression (%) Experiment-2 / Inhibition of IL-17A expression (%) Experiment-3 / Inhibition of IL-17A expression (%) Experiment-1: 6 hours; for expression of IL-17A (luciferase units): control group 2,582 units; for suppression of the expression of IL-17A (in words): 10, 100, or 1,000 μg/ml; for inhibition at 10 µg/mL / inhibition at 100 µg/mL / inhibition at 1000 µg/mL / IC50: Homo sapiens; for inhibition at 10 µg/mL / inhibition at 100 µg/mL / inhibition at 1000 µg/mL: read-out: Average Inhibition (%); for IC50: read-out: IC50 to inhibit the IL-17A expression by 50%
[7] = system: psoriasis induced mice (imiquimod); assay: Skin hemorrhage spot reduction effect in the psoriasis induced mice; type: in vivo, Balb/c mouse; conditions: for number of mice showing hemorrhage spots: IMQ applied, 8 mice/group
Experimental: as §3, §4
The psoriasis induced mice orally administered with cedrol, cedryl acetate, and alpha-cedrene of Example <2-1> were observed by the naked eye, and the number of mice showing hemorrhage spots was counted. Hemorrhage spot is a symptom of psoriasis, and when IMQ is applied, the number of skin hemorrhage spots increases as time goes by.

[8] = system: psoriasis induced mice (imiquimod); assay: Recovery effect on keratosis of the psoriasis induced mice after termination of imiquimod (PASI); type: in vivo, Balb/c mouse
Experimental: as §1, §2

[9] = day 8, 100 mg/kg oral, 8 mice/group
[10] = day 16, 100 mg/kg oral after termination of imiquimod
[11] = day 16, 100 mg/kg oral after termination of imiquimod, distilled water 5
[12] = day 7, 100 mg/kg oral, IMQ alone 3
[13] = day 7, 100 mg/kg oral, IMQ alone 5
[14] = day 8 (imiquimod application stopped), 100 mg/kg oral
[15] = 100 mg/kg oral after termination of imiquimod
[16] = day 13, 100 mg/kg oral after termination of imiquimod

Row | Structure (SMILES) | number of mice showing skin wrinkles [1, 9] | PASI reflecting skin flair [2] | mean ear thickness point (PASI) [3] | number of mice showing hair regrowth [4, 11] | number of mice showing hemorrhage spots [5, 9] | number of mice showing skin wrinkles [6, 12] | expression of IL-17A, % by the control (IL-17A expression; 10 μg/ml) | Inhibition of IL-17A expression (%) Experiment-2 (IL-17A expression; 10 μg/ml) | Inhibition of IL-17A expression (%) Experiment-3 (IL-17A expression; 10 μg/ml) | expression of IL-17A (luciferase units) (IL-17A expression; 10 μg/ml) | expression of IL-17A, % by the control (IL-17A expression; 100 μg/ml) | Inhibition of IL-17A expression (%) Experiment-2 (IL-17A expression; 100 μg/ml) | Inhibition of IL-17A expression (%) Experiment-3 (IL-17A expression; 100 μg/ml) | expression of IL-17A (luciferase units) (IL-17A expression; 100 μg/ml) | expression of IL-17A, % by the control (IL-17A expression; 1,000 μg/ml) | Inhibition of IL-17A expression (%) Experiment-2 (IL-17A expression; 1000 μg/ml) | Inhibition of IL-17A expression (%) Experiment-3 (IL-17A expression; 1000 μg/ml) | expression of IL-17A (luciferase units) (IL-17A expression; 1,000 μg/ml) | suppression of the expression of IL-17A (in words) (IL-17A expression) | inhibition at 10 µg/mL (IL-17A expression) | other results
1 | CC(=O)O[C@]1(C)CC[C@@]23C[C@@H]1C(C)(C)[C@@H]2CC[C@H]3C [cedryl acetate, Cedryl acetate] | 3 mice | 4.0±0.0 point | 2.3 point | 7 mice | 6 mice | one | 77 % by the control | 15% | 23% | 1,994±304 units | 64 % by the control | 27% | 36% | 1,648±138 units | 10 % by the control | 74% | 90% | 257±6 units | dose-dependently | 19% | number of mice showing skin wrinkles [1, 10]: no mouse; ear thickness reduction effect, comparison in words ([3]; 100 mg/kg oral, 7 days): strongest reduction effect; number of mice showing hair regrowth ([4]; day 14, 100 mg/kg oral after termination of imiquimod): one; number of mice showing hemorrhage spots [5, 10]: no mouse; number of mice showing skin wrinkles ([6]; day 5, 100 mg/kg oral): one; inhibition at 100 µg/mL (IL-17A expression): 31.5%; inhibition at 1000 µg/mL (IL-17A expression): 82%; IC50 (IL-17A expression): 608 µg/mL; IL-17A expression inhibition activity, comparison in words (IL-17A expression; order by IC50 of Table 3): strongest IL-17A expression inhibition activity; skin hemorrhage spot reduction effect, comparison in words ([7]; 100 mg/kg oral, 7 days): strongest reduction effect; number of mice showing hemorrhage spots ([7]; day 5, 100 mg/kg oral): one; number of mice showing hemorrhage spots [7, 13]: one; PASI reflecting keratosis [8, 14]: 4.0±0.6 point; PASI reflecting keratosis ([8]; day 14, 100 mg/kg oral once a day after termination of imiquimod): 1.0±0.0 point
2 | C[C@@H]1CC[C@H]2C(C)(C)[C@H]3C[C@@]12CC[C@@]3(C)O [cedrol, Cedrol] | 5 mice | 3.0±0.6 point | 2.6 point | all the mice | 6 mice | 2 mice | 67 % by the control | 0% | 33% | 1,718±174 units | 57 % by the control | 14% | 43% | 1,460±124 units | 28 % by the control | 59% | 72% | 715±45 units | dose-dependently | 19% | skin wrinkle recovery effect, comparison in words [1, 15]: strongest recovery effect; number of mice showing skin wrinkles ([1]; after day 15, 100 mg/kg oral after termination of imiquimod): no mouse; skin flair recovery effect, comparison in words [2, 15]: strongest recovery effect; skin flair disappearance (in words) [2]: skin flair of all mice disappeared; accelerating effect on hair regrowth, comparison in words [4, 15]: strongest accelerating effect; number of mice showing hair regrowth [4, 16]: 2 mice; hemorrhage spot recovery effect, comparison in words [5, 15]: strongest recovery effect; number of mice showing hemorrhage spots ([5]; day 12, 100 mg/kg oral after termination of imiquimod): no mouse; number of mice showing skin wrinkles ([6]; day 5, 100 mg/kg oral): one; Inhibition of IL-17A expression (%) Experiment-1 (IL-17A expression; 10 μg/ml): 24%; Inhibition of IL-17A expression (%) Experiment-1 (IL-17A expression; 100 μg/ml): 21%; Inhibition of IL-17A expression (%) Experiment-1 (IL-17A expression; 1000 μg/ml): 76%; inhibition at 100 µg/mL (IL-17A expression): 26%; inhibition at 1000 µg/mL (IL-17A expression): 69%; IC50 (IL-17A expression): 726 µg/mL (≈ 3.26 mM); number of mice showing hemorrhage spots ([7]; day 4, 100 mg/kg oral): one; number of mice showing hemorrhage spots [7, 13]: 3 mice; keratosis recovery effect, comparison in words [8, 15]: strongest recovery effect; PASI reflecting keratosis [8, 14]: 3.0±0.6 point; keratosis recovered to normal (in words) ([8]; on day 15, 100 mg/kg oral after termination of imiquimod): all 8 mice were recovered to normal
3 | CC1=CC[C@@]23C[C@@H]1C(C)(C)[C@@H]2CC[C@H]3C [alpha-cedrene, Alpha-cedrene] | 3 mice | 4.0±1.0 point | 2.6 point | all the mice | 4 mice | one | 79 % by the control | 3% | 21% | 2,042±114 units | 68 % by the control | 11% | 32% | 1,757±310 units | 65 % by the control | 23% | 35% | 1,688±64 units | dose-dependently | 10% | number of mice showing skin wrinkles [1, 10]: no mouse; skin flair disappearance (in words) [2]: skin flair of all mice disappeared; number of mice showing hair regrowth [4, 16]: one; number of mice showing hemorrhage spots [5, 10]: no mouse; skin wrinkle reduction effect, comparison in words ([6]; 100 mg/kg oral, 7 days): strongest reduction effect; number of mice showing skin wrinkles ([6]; day 6, 100 mg/kg oral): one; Inhibition of IL-17A expression (%) Experiment-1 (IL-17A expression; 10 μg/ml): 6%; Inhibition of IL-17A expression (%) Experiment-1 (IL-17A expression; 100 μg/ml): 21%; Inhibition of IL-17A expression (%) Experiment-1 (IL-17A expression; 1000 μg/ml): 36%; inhibition at 100 µg/mL (IL-17A expression): 21.3%; inhibition at 1000 µg/mL (IL-17A expression): 31.3%; IC50 (IL-17A expression): 1510 µg/mL (≈ 7.37 mM); number of mice showing hemorrhage spots ([7]; day 5, 100 mg/kg oral): two; number of mice showing hemorrhage spots [7, 13]: one; PASI reflecting keratosis [8, 14]: 4.0±0.6 point; PASI reflecting keratosis ([8]; day 15, 100 mg/kg oral once a day after termination of imiquimod): 0.3±0.6 point
